Where a name gives a salt, the structure may show the parent alone.
System: progranulin (PGRN)
Test: progranulin induction cellular assay (PGRN assay), ELISA-based readout
Conditions: PGRN assay as described: mouse primary microglia, primary cortical neurons and BV-2 cell lines; secreted mouse PGRN in medium by ELISA; cell type for Table B not specified
Description: Cellular Assays: To measure the efficacy of compounds, a progranulin induction cellular assay in mouse primary microglia (pMG), primary cortical neurons, and BV-2 cell lines is used. BV-2 cells are split the day before plating into a 96 well plate format at approximately 80%. Cells should be plated the day before and allowed for 1 hour attachment period and for 16 hour incubation. Levels of progranulin secreted into the cell culture medium or retained in the cell lysate can be quantified using an ELISA-based readout and measurement of secreted mouse PGRN in the medium was assessed by the methodology published by Ghidoni et al. 2012. Standard ELISA kits to measure PGRN are available from vendors such as Adipogen, R&D, and Biovendor.
Table B below presents the results of a PGRN assay as described above.

## NC1(COC(=O)N2CCc3ccccc3[C@@H]2c2ccc(F)cc2)CC1 [Compound 4033, (1-Aminocyclopropyl)methyl (S)-1-(4-fluorophenyl)-3,4-dihydroisoquinoline-2(1H)-carboxylate hydrochloride]
  EC50: 320 nM

## NC[C@H]1CC[C@@H]1OC(=O)N1CCc2ccccc2[C@@H]1c1ccc(F)cc1 [Compound 4064]
  EC50: 968 nM

## N[C@H]1C[C@@H](OC(=O)N2CCc3ccccc3[C@@H]2c2ccc(F)cc2)C1 [Compound 4155, cis-3-aminocyclobutyl (S)-1-(4-fluorophenyl)-3,4-dihydroisoquinoline-2(1H)-carboxylate]
  EC50: 131 nM

## O=C(NC12CC(N3CCCC3=O)(C1)C2)N1CCc2ccccc2[C@@H]1c1ccc(F)cc1 [Compound 4024, (S)-1-(4-fluorophenyl)-N-(3-(2-oxopyrrolidin-1-yl)bicyclo[1.1.1]pentan-1-yl)-3,4-dihydroisoquinoline-2(1H)-carboxamide]
  EC50: > 10000 nM

## CC(C)(OC(=O)N1CCc2ccccc2C1c1ccc(F)cc1)C12CC(N)(C1)C2 [Compound 4048, 2-(3-Aminobicyclo[1.1.1]pentan-1-yl)propan-2-yl (S)-1-(4-fluorophenyl)-3,4-dihydroisoquinoline-2(1H)-carboxylate]
  EC50: 1090 nM

## NC[C@H]1C[C@H](C(=O)N2CCc3ccccc3[C@@H]2c2ccc(F)cc2)C1 [Compound 4149, (trans-3-(aminomethyl)cyclobutyl)((S)-1-(4-fluorophenyl)-3,4-dihydroisoquinolin-2(1H)-yl)methanone]
  EC50: 245 nM

## N[C@H]1C[C@H](COC(=O)N2CCc3ccccc3[C@@H]2c2ccc(F)cc2)C1 [Compound 4047, (Trans-3-aminocyclobutyl)methyl (S)-1-(4-fluorophenyl)-3,4-dihydroisoquinoline-2(1H)-carboxylate]
  EC50: 1640 nM

## CN[C@H]1C[C@H](N(C)C(=O)N2CCc3ccccc3[C@@H]2c2ccc(F)cc2)C1 [Compound 4044, (S)-1-(4-fluorophenyl)-N-methyl-N-((trans)-3-(methylamino)cyclobutyl)-3,4-dihydroisoquinoline-2(1H)-carboxamide hydrochloride]
  EC50: 1030 nM

## C[C@]1(NC(=O)N2CCc3ccccc3[C@@H]2c2ccc(F)cc2)C[C@H](N)C1 [Compound 4053, (S)—N-((trans)-3-amino-1-methylcyclobutyl)-1-(4-fluorophenyl)-3,4-dihydroisoquinoline-2(1H)-carboxamide]
  EC50: 31 nM

## N[C@H]1C[C@H](C(=O)N2CCc3ccccc3[C@@H]2c2ccc(F)cc2)C1 [Compound 4147, (trans-3-aminocyclobutyl)((S)-1-(4-fluorophenyl)-3,4-dihydroisoquinolin-2(1H)-yl)methanone]
  EC50: 99 nM

## CN[C@H]1C[C@@H](NC(=O)N2CCc3ccccc3[C@@H]2c2ccc(F)cc2)C1 [Compound 4066]
  EC50: 610 nM

## N[C@]1(CO)C[C@H](C(=O)N2CCc3ccccc3[C@@H]2c2ccc(F)cc2)C1 [Compound 4151, (cis-3-amino-3-(hydroxymethyl)cyclobutyl)((S)-1-(4-fluorophenyl)-3,4-dihydroisoquinolin-2(1H)-yl)methanone]
  EC50: 83 nM

## CCN[C@H]1C[C@@H](OC(=O)N2CCc3ccccc3[C@@H]2c2ccc(F)cc2)C1 [Compound 4129]
  EC50: 318 nM

## NC12CC(OC(=O)N3CCc4ccccc4[C@@H]3c3ccc(F)cc3)(C1)C2 [Compound 4001, 3-Aminobicyclo[1.1.1]pentan-1-yl (S)-1-(4-fluorophenyl)-3,4-dihydroisoquinoline-2(1H)-carboxylate]
  EC50: 440 nM

## O=C(NC12CC(N3CCS(=O)(=O)CC3)(C1)C2)N1CCc2ccccc2[C@@H]1c1ccc(F)cc1 [Compound 4021, (S)—N-(3-(1,1-dioxidothiomorpholino)bicyclo[1.1.1]pentan-1-yl)-1-(4-fluorophenyl)-3,4-dihydroisoquinoline-2(1H)-carboxamide]
  EC50: > 10000 nM

## O=C(O[C@H]1C[C@H](NCCO)C1)N1CCc2ccccc2[C@@H]1c1ccc(F)cc1 [Compound 4146, trans-3-((2-hydroxyethyl)amino)cyclobutyl (S)-1-(4-fluorophenyl)-3,4-dihydroisoquinoline-2(1H)-carboxylate]
  EC50: 89 nM

## N[C@H]1CCC1OC(=O)N1CCc2ccccc2[C@@H]1c1ccc(F)cc1 (single isomer, unassigned) [Compound 4040, hydrochloride]
  EC50: 2330 nM

## CNC12CC(CC(=O)N3CCc4ccccc4C3c3ccc(F)cc3)(C1)C2 [Compound 4057, (S)-1-(1-(4-fluorophenyl)-3,4-dihydroisoquinolin-2(1H)-yl)-2-(3-(methylamino)bicyclo[1.1.1]pentan-1-yl)ethan-1-one]
  EC50: 1750 nM

## NC[C@]1(O)C[C@@H](C(=O)N2CCc3ccccc3[C@@H]2c2ccc(F)cc2)C1 (single isomer, unassigned) [Compound 4153]
  EC50: 130 nM

## CS(=O)(=O)NC12CC(NC(=O)N3CCc4ccccc4[C@@H]3c3ccc(F)cc3)(C1)C2 [Compound 4017, (S)-1-(4-fluorophenyl)-N-(3-(methylsulfonamido)bicyclo[1.1.1]pentan-1-yl)-3,4-dihydroisoquinoline-2(1H)-carboxamide]
  EC50: > 10000 nM

## NC[C@H]1CC[C@H]1OC(=O)N1CCc2ccccc2[C@@H]1c1ccc(F)cc1 [Compound 4065]
  EC50: 821 nM

## C#CCOCCNC12CC(NC(=O)N3CCc4ccccc4[C@@H]3c3ccc(F)cc3)(C1)C2 [Compound 4011, (S)-1-(4-fluorophenyl)-N-(3-((2-(prop-2-yn-1-yloxy)ethyl)amino)bicyclo[1.1.1]pentan-1-yl)-3,4-dihydroisoquinoline-2(1H)-carboxamide]
  EC50: 5160 nM

## O=C(NC12CC(N3CC(F)(F)C3)(C1)C2)N1CCc2ccccc2[C@@H]1c1ccc(F)cc1 [Compound 4052, (S)—N-(3-(3,3-difluoroazetidin-1-yl)bicyclo[1.1.1]pentan-1-yl)-1-(4-fluorophenyl)-3,4-dihydroisoquinoline-2(1H)-carboxamide]
  EC50: > 10000 nM

## CN(C)[C@H]1C[C@H](OC(=O)N2CCc3ccccc3[C@@H]2c2ccc(F)cc2)C1 [Compound 4128]
  EC50: 319 nM

## N[C@@H]1C[C@H](NC(=O)N2CCc3ccccc3[C@@H]2c2ccc(F)cc2)CC(F)(F)C1 (single isomer, unassigned) [Compound 4141]
  EC50: 201 nM

Reference: patent publication US20230115534A1 (ARKUDA THERAPEUTICS, priority 2019, published 2023)
